pIC50: −log10 of the molar value.
Each compound was assayed on mutant Huntington (HTT) protein (assay: HTT Mutant HTRF iPSC assay (mHTT protein lowering)). Details: human iPSC derived from a HTT patient with a poly-Q49 mutation.
Assay type: cell-based
For Cc1cn2nc(-c3cc(F)c4nc([C@H]5CCNC6(CC6)C5)cn4c3)cc(C)c2n1 (single isomer, unassigned) [Compound 180], the pIC50 was > 7.00.
Cc1cn2nc(-c3cc(F)c4nc(C5CCN(C)C5)cn4c3)cc(C)c2n1 (single isomer, unassigned) [Compound 186] was tested, and the pIC50 was 6.00 to 7.00.
In the case of Cc1cn2nc(-c3cc(F)c4nc([C@@H]5CCNC5)cn4c3)cc(C)c2n1 (single isomer, unassigned) [Compound 189], the pIC50 was > 7.00.
For Cc1cn2nc(-c3cc(F)c4nc([C@H]5CCNC5)cn4c3)cc(C)c2n1 (single isomer, unassigned) [Compound 190], the pIC50 was 6.00 to 7.00.
In the case of Cc1cn2nc(-c3cc(F)c4nc(C5CCN(C)C6(CC6)C5)cn4c3)cc(C)c2n1 (single isomer, unassigned) [Compound 209], the pIC50 was > 7.00.
With Cc1cn2nc(-c3cc(F)c4nc(C5CCNC(C)(C)C5)cn4c3)cc(C)c2n1 (single isomer, unassigned) [Compound 234] the pIC50 was > 7.00.
For Cc1cn2nc(-c3cc(F)c4nc(C5CCNC(C)(C)C5)cn4c3)cc(C)c2n1 (single isomer, unassigned) [Compound 235], the pIC50 was > 7.00.
With Cc1cn2nc(-c3cc(F)c4nc(NC(=O)C5CCCN(C)C5)cn4c3)cc(C)c2n1 (single isomer, unassigned) [Compound 277] the pIC50 was > 7.00.
In the case of Cc1cn2nc(-c3cc(F)c4nc(NC(=O)C5CCCN(C)C5)cn4c3)cc(C)c2n1 (single isomer, unassigned) [Compound 278], the pIC50 was > 7.00.
Compound Cc1cn2nc(-c3cc(F)c4nc(NC(=O)C5CCCNC5)nn4c3)cc(C)c2n1 (single isomer, unassigned) [Compound 315] has a pIC50 of 6.00 to 7.00.
Compound Cc1cn2nc(-c3cc(F)c4nc(NC(=O)C5CCCNC5)nn4c3)cc(C)c2n1 (single isomer, unassigned) [Compound 316] has a pIC50 of 6.00 to 7.00.
Cc1cn2nc(-c3cc(F)c4nc(NC(=O)C5CCCN(C)C5)nn4c3)cc(C)c2n1 (single isomer, unassigned) [Compound 325] was tested, and the pIC50 was 6.00 to 7.00.
In the case of Cc1cn2nc(-c3cc(F)c4nc(NC(=O)C5CCCN(C)C5)nn4c3)cc(C)c2n1 (single isomer, unassigned) [Compound 326], the pIC50 was 6.00 to 7.00.
Cc1cn2nc(-c3cc(F)c4nc(C(=O)NC5CCNC6(CC6)C5)cn4c3)cc(C)c2n1 (single isomer, unassigned) [Compound 348] showed a pIC50 of 6.00 to 7.00.
For Cc1cn2nc(-c3cc(F)c4nc(N(C)C5CCNC(C)(C)C5)oc4c3)cc(C)c2n1 (single isomer, unassigned) [Compound 508], the pIC50 was 6.00 to 7.00.
Compound Cc1cn2nc(-c3cc(F)c4nc(N(C)C5CCNC(C)(C)C5)oc4c3)cc(C)c2n1 (single isomer, unassigned) [Compound 509] has a pIC50 of 6.00 to 7.00.
For CN[C@@H]1CCC[C@H](c2cn3cc(-c4cc(F)c5nn(C)cc5c4)cc(F)c3n2)C1 (stereo in doubt) [Compound 162, rel-(1R,3S)-3-(8-fluoro-6-(7-fluoro-2-methyl-2H-indazol-5-yl)imidazo[1,2-a]pyridin-2-yl)-N-methylcyclohexan-1-amine], the pIC50 was 6.00 to 7.00.
Work on CN[C@H]1CCC[C@@H](c2cn3cc(-c4cc(F)c5nn(C)cc5c4)cc(F)c3n2)C1 (stereo in doubt) [Compound 163, rel-(1R,3S)-3-(8-fluoro-6-(7-fluoro-2-methyl-2H-indazol-5-yl)imidazo[1,2-a]pyridin-2-yl)-N-methylcyclohexan-1-amine] yielded a pIC50 of 6.00 to 7.00.
Cc1cn2nc(-c3cc(F)c4nc(NC(=O)[C@H]5CN[C@@H]5C)cn4c3)cc(C)c2n1 (stereo in doubt) [Compound 286, rel-(2R,3S)-N-(6-(2,8-dimethylimidazo[1,2-b]pyridazin-6-yl)-8-fluoroimidazo[1,2-a]pyridin-2-yl)-2-methylazetidine-3-carboxamide] was tested, and the pIC50 was > 7.00.
With Cc1cn2nc(-c3cc(F)c4nc(NC(=O)[C@@H]5CN[C@H]5C)cn4c3)cc(C)c2n1 (stereo in doubt) [Compound 287, rel-(2R,3S)-N-(6-(2,8-dimethylimidazo[1,2-b]pyridazin-6-yl)-8-fluoroimidazo[1,2-a]pyridin-2-yl)-2-methylazetidine-3-carboxamide] the pIC50 was > 7.00.
With CCN1CC[C@H](N(C)c2nc3c(F)cc(-c4cc(C)c5nc(C)cn5n4)cc3o2)C[C@@H]1C (stereo in doubt) [Compound 486, rel-6-(2,8-dimethylimidazo[1,2-b]pyridazin-6-yl)-N-((2R,4R)-1-ethyl-2-methylpiperidin-4-yl)-4-fluoro-N-methylbenzo[d]oxazol-2-amine] the pIC50 was > 7.00.
With CCN1CC[C@@H](N(C)c2nc3c(F)cc(-c4cc(C)c5nc(C)cn5n4)cc3o2)C[C@H]1C (stereo in doubt) [Compound 487, rel-6-(2,8-dimethylimidazo[1,2-b]pyridazin-6-yl)-N-((2R,4R)-1-ethyl-2-methylpiperidin-4-yl)-4-fluoro-N-methylbenzo[d]oxazol-2-amine] the pIC50 was > 7.00.
Cc1cn2nc(-c3cc(F)c4nc(C5CCNCC5)cn4c3)cc(C)c2n1 [Compound 1] was tested, and the pIC50 was > 7.00.
Cc1cn2nc(-c3cc(F)c4nc(C5CCNCC5)cn4c3)ccc2n1 [Compound 2, 6-(8-fluoro-2-(piperidin-4-yl)imidazo[1,2-a]pyridin-6-yl)-2-methylimidazo[1,2-b]pyridazine] was tested, and the pIC50 was > 7.00.
For CCN1CCC(c2cn3cc(-c4ccc5nc(C)cn5n4)cc(F)c3n2)CC1 [Compound 3, 6-(2-(1-ethylpiperidin-4-yl)-8-fluoroimidazo[1,2-a]pyridin-6-yl)-2-methylimidazo[1,2-b]pyridazine], the pIC50 was > 7.00.
Cc1cn2nc(-c3cc(F)c4nc(C5CCN(C)CC5)cn4c3)ccc2n1 [Compound 4, 6-[8-fluoro-2-(1-methyl-4-piperidyl)imidazo[1,2-a]pyridin-6-yl]-2-methyl-imidazo[1,2-b]pyridazine] was tested, and the pIC50 was 6.00 to 7.00.
Compound CCN1CCC(c2cn3cc(-c4cc(F)c5nn(C)cc5c4)cc(F)c3n2)CC1 [Compound 5, 5-(2-(1-ethylpiperidin-4-yl)-8-fluoroimidazo[1,2-a]pyridin-6-yl)-7-fluoro-2-methyl-2H-indazole] has a pIC50 of 6.00 to 7.00.
Cc1cc(-c2cc(F)c3nc(C4CCN(C)CC4)cn3c2)cc2cn(C)nc12 [Compound 6, 5-(8-fluoro-2-(1-methylpiperidin-4-yl)imidazo[1,2-a]pyridin-6-yl)-2,7-dimethyl-2H-indazole] was tested, and the pIC50 was 6.00 to 7.00.
Compound CCN1CCC(c2cn3cc(-c4ccc5nn(C)cc5c4)cc(F)c3n2)CC1 [Compound 7, 5-(2-(1-ethylpiperidin-4-yl)-8-fluoroimidazo[1,2-a]pyridin-6-yl)-2-methyl-2H-indazole] has a pIC50 of 5.05 to 6.00.
CCN1CCC(c2cn3cc(-c4ccc5nc(C)cn5c4)cc(F)c3n2)CC1 [Compound 8, 2-(1-ethylpiperidin-4-yl)-8-fluoro-2′-methyl-6,6′-biimidazo[1,2-a]pyridine] was tested, and the pIC50 was 5.05 to 6.00.
Cc1cn2cc(-c3cc(F)c4nc(C5CCN(C)CC5)cn4c3)cc(C)c2n1 [Compound 9, 8-fluoro-2′,8′-dimethyl-2-(1-methylpiperidin-4-yl)-6,6′-biimidazo[1,2-a]pyridine] was tested, and the pIC50 was 5.05 to 6.00.
With Cc1cn2cc(-c3cc(F)c4nc(C5CCN(C)CC5)cn4c3)ccc2n1 [Compound 10, 8-fluoro-2′-methyl-2-(1-methylpiperidin-4-yl)-6,6′-biimidazo[1,2-a]pyridine] the pIC50 was 5.05 to 6.00.
Compound Cn1cc2cc(-c3cc(F)c4nc(C5CCNCC5)cn4c3)ccc2n1 [Compound 11, 5-(8-fluoro-2-(piperidin-4-yl)imidazo[1,2-a]pyridin-6-yl)-2-methyl-2H-indazole] has a pIC50 of 6.00 to 7.00.
CNCCc1cn2cc(-c3cc(C)c4nc(C)cn4n3)cc(F)c2n1 [Compound 12, 2-(6-(2,8-dimethylimidazo[1,2-b]pyridazin-6-yl)-8-fluoroimidazo[1,2-a]pyridin-2-yl)-N-methylethan-1-amine] gave a pIC50 of 6.00 to 7.00.
Work on Cc1cn2nc(-c3cc(F)c4nc(CC5CNC5)cn4c3)cc(C)c2n1 [Compound 13, 6-(2-(azetidin-3-ylmethyl)-8-fluoroimidazo[1,2-a]pyridin-6-yl)-2,8-dimethylimidazo[1,2-b]pyridazine] yielded a pIC50 of 6.00 to 7.00.
Cn1cc2cc(-c3cc(F)c4nc(CC5CCCNC5)cn4c3)cc(F)c2n1 (centres unmarked) [Compound 14, 7-fluoro-5-(8-fluoro-2-(piperidin-3-ylmethyl)imidazo[1,2-a]pyridin-6-yl)-2-methyl-2H-indazole] showed a pIC50 of 6.00 to 7.00.
Cc1cn2cc(-c3cc(F)c4nc(CC5CCCNC5)cn4c3)cc(F)c2n1 (centres unmarked) [Compound 15, 8,8′-difluoro-2-methyl-2′-(piperidin-3-ylmethyl)-6,6′-biimidazo[1,2-a]pyridine] was tested, and the pIC50 was 6.00 to 7.00.
Cn1cc2cc(-c3cc(F)c4nc(C5CCCNC5)cn4c3)ccc2n1 (centres unmarked) [Compound 16, 5-(8-fluoro-2-(piperidin-3-yl)imidazo[1,2-a]pyridin-6-yl)-2-methyl-2H-indazole] showed a pIC50 of 6.00 to 7.00.
Work on Cn1cc2cc(-c3cc(F)c4nc(CC5CCCNC5)cn4c3)ccc2n1 (centres unmarked) [Compound 17, 5-(8-fluoro-2-(piperidin-3-ylmethyl)imidazo[1,2-a]pyridin-6-yl)-2-methyl-2H-indazole] yielded a pIC50 of 6.00 to 7.00.
CNCCc1cn2cc(-c3cc(F)c4nn(C)cc4c3)cc(F)c2n1 [Compound 18, 2-(8-fluoro-6-(7-fluoro-2-methyl-2H-indazol-5-yl)imidazo[1,2-a]pyridin-2-yl)-N-methylethan-1-amine] gave a pIC50 of 5.05 to 6.00.
Cn1cc2cc(-c3cc(F)c4nc(CC5CNC5)cn4c3)cc(F)c2n1 [Compound 19, 5-(2-(azetidin-3-ylmethyl)-8-fluoroimidazo[1,2-a]pyridin-6-yl)-7-fluoro-2-methyl-2H-indazole] gave a pIC50 of 5.05 to 6.00.
Cn1cc2cc(-c3cc(F)c4nc(CC5CNC5)cn4c3)ccc2n1 [Compound 20, 5-(2-(azetidin-3-ylmethyl)-8-fluoroimidazo[1,2-a]pyridin-6-yl)-2-methyl-2H-indazole] was tested, and the pIC50 was 5.05 to 6.00.
Cc1cn2cc(-c3cc(F)c4nc(CC5CNC5)cn4c3)cc(F)c2n1 [Compound 21, 2-(azetidin-3-ylmethyl)-8,8′-difluoro-2′-methyl-6,6′-biimidazo[1,2-a]pyridine] gave a pIC50 of 5.05 to 6.00.
For CNCCc1cn2cc(-c3ccc4nn(C)cc4c3)cc(F)c2n1 [Compound 22, 2-(8-fluoro-6-(2-methyl-2H-indazol-5-yl)imidazo[1,2-a]pyridin-2-yl)-N-methylethan-1-amine], the pIC50 was 5.05 to 6.00.
